Assay results reported in the METLIN SMRT retention time set (Domingo-Almenara et al. 2019).

Assay: gradient 5% acetonitrile 3 min, to 50% in 2 min, to 85% in 15 min, held 3 min, 100 µL/min
Conditions: column: Zorbax Extend-C18 2.1 x 50 mm; eluents: water / acetonitrile, 0.1% formic acid
Method in brief: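 Each retention time is based on an adduct peak selected computationally and verified by manual inspection. Measurements used HPLC–quadrupole time-of-flight mass spectrometry in positive and negative ionization mode on mixtures of ~100 pure standards. Chromatography ran on a Zorbax Extend-C18 column (2.1 × 50 mm, 1.8 μm) at 100 μL/min with water and acetonitrile, each containing 0.1% formic acid, and dead and dwell volumes of 40 μL and 900 μL.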

Row | Structure (SMILES) | RP-LC retention time
1 | CC1=C(c2ccc(F)cc2)S(=O)(=O)N=C1N1CCCN(C(=O)C(C)(C)C)CC1 | 814 s
2 | COc1ccccc1C(=O)Nc1cnc(-c2cccc(Cl)c2)nc1 | 1180 s
3 | Cc1ccc(NC(=O)CN2C(=O)CCCc3cc(S(=O)(=O)N4CCCC4)ccc32)c(C)c1 | 852 s
4 | C=CCNC(=O)C(=O)N1CCN(c2ccc(OC)cc2)CC1 | 625 s
5 | Cc1cc2c(=O)n(CC(=O)Nc3ccc(Cl)cc3)c3cccnc3n2n1 | 745 s
6 | Nc1ncnc(N2CCN(C(c3ccccc3)c3ccccc3)CC2)c1[N+](=O)[O-] | 698 s
7 | CC(C)N1CCn2c(nc3cc(C(=O)NCc4ccc5c(c4)OCO5)ccc32)C1=O | 680 s
8 | CCOC(=O)c1cc(S(=O)(=O)N2CCCC2C(=O)Nc2ccc(C)c(F)c2)cn1C (stereo not drawn) | 988 s
9 | O=C(NCc1ccccc1)N1CCN(c2nc3cccnc3n(Cc3ccccc3)c2=O)CC1 | 1020 s
10 | Cn1c(=O)c(N2CCN(C(=O)c3cc(Cl)ccc3F)CC2)nc2ccncc21 | 560 s
11 | Cn1c(=O)n(C)c2cc(S(=O)(=O)C3CCCCC3)c(NC(=O)c3c(F)cccc3F)cc21 | 914 s
12 | O=C(NCc1cccnc1)c1nnc(-c2ccc(S(=O)(=O)N3CCCCC3)cc2)o1 | 669 s
13 | COC(=O)c1ccccc1NC(=O)c1cc(N2C(=O)CCS2(=O)=O)ccc1Cl | 840 s
14 | COc1cc2c(cc1OC)C(C(=O)NCc1ccc3c(c1)OCO3)C1c3ccccc3CCN1C2=O (stereo not drawn) | 788 s
15 | CCNC(=O)c1ccc(-n2c(C)ccc2C)nc1 | 566 s
16 | COc1ccc(-c2cc(N3CCN(C(=O)Nc4ccc5c(c4)OCCO5)CC3)ncn2)cc1 | 652 s
17 | CCC(C)C(NC(=O)c1cccc(N(C)C)c1)C(=O)Nc1nc2ccccc2[nH]1 (stereo not drawn) | 703 s
18 | Cc1ccc(-c2noc(-c3cccc(S(=O)(=O)Nc4ccccn4)c3)n2)cc1 | 935 s
19 | CC1=C(C(=O)Nc2cccc(Cl)c2C)C2(CCCCCC2)OC1=O | 1090 s
20 | Cn1nc(-c2nnc(-c3ccc(F)cc3)o2)c2c1CCN(S(=O)(=O)c1ccc(F)cc1F)C2 | 985 s
21 | O=C(Nc1sc2c(c1C(c1ccccn1)N1CCN(c3ccccn3)CC1)CCCC2)c1ccco1 (stereo not drawn) | 775 s
22 | CCCn1cc(CCNS(=O)(=O)c2cccc(F)c2)c2cccnc21 | 837 s

Row | Structure (SMILES) | RP-LC retention time
23 | CCCNC(=O)N1CCC(CCOc2ccncc2)CC1 | 571 s
24 | CC1=NS(=O)(=O)N(C)C=C1C(=O)OCc1noc(-c2ccccc2F)n1 | 914 s
25 | CC(C)CC(=O)N1CCN(c2ccc(=O)n(-c3cccc(Cl)c3)n2)CC1 | 829 s
26 | Cc1ccc(F)cc1S(=O)(=O)N1CCC2(C1)C(=O)Nc1ccccc12 (stereo not drawn) | 866 s
27 | CCc1ccc(-c2csc(Cc3nc(-c4ccc5c(c4)OCO5)no3)n2)cc1 | 1300 s
28 | O=C(c1cccs1)N1CCC(n2c(-c3ccoc3)nc3cccnc32)C1 (stereo not drawn) | 685 s
29 | Cn1cc(S(=O)(=O)Nc2ccc(F)c(F)c2)c2cccnc21 | 790 s
30 | CCN(CC)CCNc1c(C)cc(CO)c(Cl)c1C | 640 s
31 | Cc1ccc(C)c(N2CCN(c3ccnc(SCC(=O)NCc4ccccc4Cl)n3)CC2)c1 | 952 s
32 | CN(CCNC(=O)Cn1c2ccccc2c2cnn(C)c(=O)c21)Cc1ccccc1 | 640 s
33 | Cc1ccc(NC(=O)Cn2nc(N3CCSCC3)c3ccccc3c2=O)cc1Cl | 970 s
34 | O=C(NCCCN1CCCC1)C1CCN(c2nnc3ccc(Cl)cn23)CC1 | 556 s
35 | CC1CCC(NC(=O)CCn2nc(C(=O)N3c4ccccc4CC3C)ccc2=O)CC1 (stereo not drawn) | 851 s
36 | Cc1ccc(CN2CCN(C3CCN(C(=O)Nc4ccc5c(c4)OCCO5)CC3)C2=O)cc1 | 765 s
37 | Cc1cccc(N2CCN(C(=O)C3CCCN(c4nc5ccccc5n5cccc45)C3)CC2)c1C (stereo not drawn) | 977 s
38 | COc1ccccc1Nc1c(-c2ccccc2)nc2cnccn12 | 875 s
39 | CC(C)N1CCn2c(nc3cc(C(=O)NCc4cccc(Cl)c4)ccc32)C1=O | 733 s
40 | CC(=O)c1ccc(NC(=O)Cn2c(=O)nc(NC3CCCC3)c3ccccc32)cc1 | 635 s
41 | COc1cccc(N2CCN(S(=O)(=O)c3cc(-c4nc(C(C)C)cs4)cs3)CC2)c1 | 1310 s
42 | CN1C(=O)CCc2cc(NS(=O)(=O)c3ccccc3C(F)(F)F)ccc21 | 779 s
43 | Cc1noc(-c2cc(=O)n(CC(=O)Nc3cc(F)cc(F)c3)c3ccccc23)n1 | 904 s
